Source: patent US8541200B2, “Cleavage of fusion proteins using Granzyme B protease” (Hoffmann-La Roche Inc., priority 2003, dated 2013)
Several values for one entry are separate records, joined by “and”; a condition that tells them apart may be missing. Equal entries are not always repeated.

Experiments:
Assay type in all cases: biochemical
[1] = Specificity on chromogenic substrates; settings: 400 μM substrate, 1 μg protease, 100 mM HEPES pH 7.75; normalized to Ac-IEPD-pNA = 100%
Description: The activity assay was carried out in 500 μl 100 mM HEPES pH 7.75 with a substrate concentration of 400 μM and 1 μg protease added for each measurement. All measurements were done at 23° C. and in triplicate, and the activities obtained were normalized by setting the activity measured on Ac-IEPD-pNA to 100%.
The specificity of both the GrB-H6 and the GrB-H6 C228F protease was examined using the chromogenic substrates Ac-LEED-pNA, Ac-VEID-pNA, Ac-YVAD-pNA, and Ac-DEVD-pNA, in addition to the Ac-IEPD-pNA substrate applied in Example 4. The activity assay was again carried out in 500 μl 100 mM HEPES pH 7.75 with a substrate concentration of 400 μM. For each measurement 1 μg of protease was added to the assay cuvette. All measurements were done in triplicate, and the activities obtained were normalized by setting the activity measured on Ac-IEPD-pNA to 100%.

[2] = Colorimetric Granzyme B activity assay with Ac-IEPD-pNA (absorbance at 405 nm)
Description: GrB-H6 activity was measured using the following mix: 500 μl buffer, 2 μl 100 mM Ac-IEPD-pNA, and 5 μl GrB-H6.
Recombinant self-activating human Granzyme B derivatives IEPD-GrB-H6 and IEAD-GrB-H6 were produced as described in Example 2 by using the expression vectors pT7-IEPD-GrB-H6 and pT7-IEAD-GrB-H6 described in Example 1. The IEAD-GrB-H6 and IEPD-GrB-H6 proteins were eluted from the SP Sepharose columns and stored at 4° C. for 2 days before the activity of the respective top fractions were determined by using a colorimetric assay. For this purpose the following was mixed: 500 μl buffer (100 mM HEPES pH 7.5), 2 μl 100 mM Ac-IEPD-pNA, and 5 μl protein solution. The change in absorption was then determined at 405 nm during 3 min. The activity was further determined after additional incubation for 1 and 2 days at 4° C.
The activity of the activated and purified GrB-H6 was measured in different buffers using the Ac-IEPD-pNA substrate: 500 μl buffer, 2 μl 100 mM Ac-IEPD-pNA, and 5 μl GrB-H6. The ΔOD405/min was calculated from the first 0.75 min unless otherwise noted.

[3] = Steady state kinetic parameters KM and kcat, Lineweaver-Burk plot; settings: 100 mM HEPES pH 7.75; 20 nM protease
Description: To estimate the steady state kinetic parameters KM and kcat, the same colorimetric assay as described above was used with a total volume of 500 μl in the assay cuvette. The assay buffer was 100 mM HEPES pH 7.75, and both GrB-H6 and GrB-H6 C228F were used in a concentration of 20 nM in each measurement. To construct a Lineweaver-Burk plot the following substrate concentrations were used: 5, 40, 150, 300, and 600 μM.

GrB-H6: activated human Granzyme B with C-terminal hexa-His tag, from cleavage/activation of pro-IEGR-GrB-H6 by FXa
specificity on chromogenic substrates [1]: at least as specific as the GrB-H6 C228F protease
Activity (ΔOD405/min) ([2]; 50 mM NaCl, 25 mM Tris-HCl pH 7.4, 0.5 μg GrB-H6): 0.1948 ΔOD405/min
Activity (ΔOD405/min) ([2]; 100 mM HEPES pH 7.2, 0.5 μg GrB-H6): 0.1970 ΔOD405/min
Activity (ΔOD405/min) ([2]; 100 mM HEPES pH 7.4 + 50 mM KCl, 0.5 μg GrB-H6): 0.2167 ΔOD405/min
Activity (ΔOD405/min) ([2]; 100 mM HEPES pH 7.4 + 50 mM NaCl, 0.5 μg GrB-H6): 0.1993 ΔOD405/min and 0.1938 ΔOD405/min
Activity (ΔOD405/min) ([2]; 100 mM HEPES pH 7.4, 0.5 μg GrB-H6): 0.2273 ΔOD405/min and 0.2328 ΔOD405/min
Activity (ΔOD405/min) ([2]; 100 mM HEPES pH 7.5 + 5 mM Ca^2+, 0.5 μg GrB-H6): 0.2425 ΔOD405/min
Activity (ΔOD405/min) ([2]; 100 mM HEPES pH 7.5, 0.5 μg GrB-H6): 0.2350 ΔOD405/min
Activity (ΔOD405/min) ([2]; 100 mM KCl, 50 mM Tris-HCl pH 7.4, 0.5 μg GrB-H6): 0.1662 ΔOD405/min
Activity (ΔOD405/min) ([2]; 100 mM NaCl, 50 mM Tris-HCl pH 7.4, 0.5 μg GrB-H6): 0.1682 ΔOD405/min
GrB activity, before FXa removal ([2]; 100 mM NaCl, 50 mM Tris-HCl pH 8.0): 0.1401 ΔOD405/min
GrB activity, after FXa removal ([2]; 100 mM NaCl, 50 mM Tris-HCl pH 8.0, top fraction of SP Sepharose eluate): 0.2213 ΔOD405/min
Activity (ΔOD405/min) ([2]; TN pH 7.0, 1 μg GrB-H6): 0.2794 ΔOD405/min
Activity (ΔOD405/min) ([2]; TN pH 7.4 + 5 mM Ca^2+, 0.5 μg GrB-H6): 0.1401 ΔOD405/min
Activity (ΔOD405/min) ([2]; TN pH 7.4 + 5 mM Mg^2+, 0.5 μg GrB-H6): 0.1491 ΔOD405/min
Activity (ΔOD405/min) ([2]; TN pH 7.4 + 0.1% TWEEN20, 0.2 μg GrB-H6, (3 min)): 0.0303 (3 min) ΔOD405/min
Activity (ΔOD405/min) ([2]; TN pH 7.4 + 0.1% TWEEN20, 0.5 μg GrB-H6): 0.0887 ΔOD405/min
Activity (ΔOD405/min) ([2]; TN pH 7.4, 0.2 μg GrB-H6, (3 min)): 0.0245 (3 min) ΔOD405/min
Activity (ΔOD405/min) ([2]; TN pH 7.4, 0.5 μg GrB-H6): 0.0835 ΔOD405/min and 0.1082 ΔOD405/min
Activity (ΔOD405/min) ([2]; TN pH 7.4, 1 μg GrB-H6): 0.2624 ΔOD405/min and 0.2930 ΔOD405/min
Activity (ΔOD405/min) ([2]; TN pH 8.1, 1 μg GrB-H6, (1 min)): 0.2213 (1 min) ΔOD405/min
best buffer for activity of the buffers evaluated ([2]; buffers of Table 6): 100 mM HEPES pH 7.4-7.5
Km [3]: 66.9 µM
kcat [3]: 5.03 s⁻¹
